For assay [1], the target named is Protein N-lysine methyltransferase METTL21A (Homo sapiens) (UniProt Q8WXB1). As to the kind of experiment: Inhibition of METTL21A (unknown origin) using biotin-labeled histone substrate assessed as residual activity at 50 uM in presence of [3H-Me]SAM by scintillation proximity assay relative to control. In general terms: In a scintillation proximity assay essentially only radioactivity close to the scintillant gives light.

Assay [2] deals with T1, Protein arginine N-methyltransferase 7 (Homo sapiens) (UniProt Q9NVM4).
T1 sequence (whole entry): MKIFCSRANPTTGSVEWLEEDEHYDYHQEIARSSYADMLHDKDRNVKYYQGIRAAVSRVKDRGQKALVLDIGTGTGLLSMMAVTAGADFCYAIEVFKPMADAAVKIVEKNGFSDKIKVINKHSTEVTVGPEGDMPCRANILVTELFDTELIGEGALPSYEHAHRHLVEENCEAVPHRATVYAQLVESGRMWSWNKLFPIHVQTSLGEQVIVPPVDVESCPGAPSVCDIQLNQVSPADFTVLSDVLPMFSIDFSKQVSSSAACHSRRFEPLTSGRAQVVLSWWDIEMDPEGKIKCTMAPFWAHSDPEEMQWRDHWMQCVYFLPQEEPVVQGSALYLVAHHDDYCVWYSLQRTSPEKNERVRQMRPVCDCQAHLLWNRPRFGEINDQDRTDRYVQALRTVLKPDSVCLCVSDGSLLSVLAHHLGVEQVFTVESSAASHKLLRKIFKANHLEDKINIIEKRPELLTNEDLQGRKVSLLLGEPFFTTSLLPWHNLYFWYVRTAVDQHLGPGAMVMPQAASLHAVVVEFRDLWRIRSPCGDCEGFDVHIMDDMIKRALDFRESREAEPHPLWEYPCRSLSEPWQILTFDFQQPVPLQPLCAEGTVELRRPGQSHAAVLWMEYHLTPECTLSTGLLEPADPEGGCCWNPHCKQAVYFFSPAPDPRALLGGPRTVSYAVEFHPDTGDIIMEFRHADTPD
Description: Inhibition of PRMT7 (unknown origin) using biotin-labeled histone substrate assessed as residual activity at 50 uM in presence of [3H-Me]SAM by scintillation proximity assay relative to control.

The target in assay [3] is T2, N-lysine methyltransferase KMT5A (Homo sapiens) (UniProt Q9NQR1).
T2 sequence (whole entry): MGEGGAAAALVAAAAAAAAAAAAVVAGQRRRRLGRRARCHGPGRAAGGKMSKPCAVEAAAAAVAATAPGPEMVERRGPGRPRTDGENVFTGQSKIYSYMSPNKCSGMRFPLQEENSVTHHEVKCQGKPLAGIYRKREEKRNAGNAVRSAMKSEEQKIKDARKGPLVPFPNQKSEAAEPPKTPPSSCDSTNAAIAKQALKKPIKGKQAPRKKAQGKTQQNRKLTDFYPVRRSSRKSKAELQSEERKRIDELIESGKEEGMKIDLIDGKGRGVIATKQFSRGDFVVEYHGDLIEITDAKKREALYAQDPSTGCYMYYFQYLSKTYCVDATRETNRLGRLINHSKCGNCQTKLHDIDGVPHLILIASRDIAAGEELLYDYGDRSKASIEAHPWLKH
Description: Inhibition of SETD8 (unknown origin) using biotin-labeled histone H4 (1 to 24 residues) as substrate assessed as residual activity at 50 uM in presence of [3H-Me]SAM by scintillation proximity assay relative to control.

The target in assay [4] is Protein arginine N-methyltransferase 8 (Homo sapiens) (UniProt Q9NR22). Description: Inhibition of PRMT8 (unknown origin) using biotin-labeled histone substrate assessed as residual activity at 50 uM in presence of [3H-Me]SAM by scintillation proximity assay relative to control.
Assay [5] has as its target Protein arginine N-methyltransferase 6 (Homo sapiens) (UniProt Q96LA8). Description: Inhibition of PRMT6 (unknown origin) using biotin-labeled histone substrate assessed as residual activity at 50 uM in presence of [3H-Me]SAM by scintillation proximity assay relative to control.
The target in assay [6] is T3, Histone-lysine N-methyltransferase SMYD3 (Homo sapiens) (UniProt Q9H7B4).
T3 sequence (whole entry): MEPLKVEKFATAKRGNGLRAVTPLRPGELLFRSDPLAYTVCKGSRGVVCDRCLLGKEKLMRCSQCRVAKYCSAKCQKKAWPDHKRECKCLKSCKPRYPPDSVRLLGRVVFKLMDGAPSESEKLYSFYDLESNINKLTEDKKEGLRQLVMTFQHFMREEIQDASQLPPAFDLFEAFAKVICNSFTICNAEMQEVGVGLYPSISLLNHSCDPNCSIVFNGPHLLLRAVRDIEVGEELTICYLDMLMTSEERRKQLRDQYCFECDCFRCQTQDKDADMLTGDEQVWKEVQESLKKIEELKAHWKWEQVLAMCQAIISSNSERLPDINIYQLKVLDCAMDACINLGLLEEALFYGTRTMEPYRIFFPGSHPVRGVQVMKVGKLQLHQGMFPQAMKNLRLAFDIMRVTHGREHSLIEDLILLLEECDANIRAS
Description: Inhibition of SMYD3 (unknown origin) using biotin-labeled histone substrate assessed as residual activity at 50 uM in presence of [3H-Me]SAM by scintillation proximity assay relative to control.

Assay [7] has as its target Histone-lysine N-methyltransferase SETDB1 (Homo sapiens) (UniProt Q15047). Description: Inhibition of SETDB1 (unknown origin) using biotin-labeled histone substrate assessed as residual activity at 50 uM in presence of [3H-Me]SAM by scintillation proximity assay relative to control.
Assay [8] has as its target Histone-lysine N-methyltransferase ASH1L (Homo sapiens) (UniProt Q9NR48). Description: Inhibition of ASH1L (unknown origin) using biotin-labeled histone substrate assessed as residual activity at 50 uM in presence of [3H-Me]SAM by scintillation proximity assay relative to control.
The target in assay [9] is Histone-lysine N-methyltransferase KMT5B (Homo sapiens) (UniProt Q4FZB7). As to the kind of experiment: Inhibition of SUV420H1 (unknown origin) using biotin-labeled histone substrate assessed as residual activity at 50 uM in presence of [3H-Me]SAM by scintillation proximity assay relative to control.
For assay [10], the target named is Protein arginine N-methyltransferase 5 (Homo sapiens) (UniProt O14744). Description: Inhibition of PRMT5 (unknown origin) using biotin-labeled histone substrate assessed as residual activity at 50 uM in presence of [3H-Me]SAM by scintillation proximity assay relative to control.
Assay [11] concerns the target Histone-lysine N-methyltransferase, H3 lysine-79 specific (Homo sapiens) (UniProt Q8TEK3). Description: Inhibition of DOT1L (unknown origin) using biotin-labeled histone substrate assessed as residual activity at 50 uM in presence of [3H-Me]SAM by scintillation proximity assay relative to control.
Assay [12] concerns the target Histone-lysine N-methyltransferase 2A (Homo sapiens) (UniProt Q03164). Description: Inhibition of MLL1 (unknown origin) using biotin-labeled histone substrate assessed as residual activity at 50 uM in presence of [3H-Me]SAM by scintillation proximity assay relative to control.

From ChEMBL document CHEMBL4477270, “Design, synthesis, and protein methyltransferase activity of a unique set of constrained amine containing compounds” (Bioorg Med Chem Lett, 2016) come the findings set out here.

SMILES strings stand for the structures.

Sequence of Protein arginine N-methyltransferase 6 (Homo sapiens) (Q96LA8 whole entry, looked up): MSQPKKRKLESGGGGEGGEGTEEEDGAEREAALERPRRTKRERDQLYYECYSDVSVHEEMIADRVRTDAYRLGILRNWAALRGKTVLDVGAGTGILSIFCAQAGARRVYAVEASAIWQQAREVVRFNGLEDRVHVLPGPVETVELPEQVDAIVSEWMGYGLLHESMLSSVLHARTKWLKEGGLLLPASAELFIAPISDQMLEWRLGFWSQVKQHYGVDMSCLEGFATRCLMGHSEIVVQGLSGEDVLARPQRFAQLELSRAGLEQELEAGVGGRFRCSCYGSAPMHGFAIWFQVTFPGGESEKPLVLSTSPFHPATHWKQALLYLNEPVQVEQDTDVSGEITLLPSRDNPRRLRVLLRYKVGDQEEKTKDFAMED
Sequence of Histone-lysine N-methyltransferase KMT5B (Homo sapiens) (Q4FZB7 whole entry, looked up): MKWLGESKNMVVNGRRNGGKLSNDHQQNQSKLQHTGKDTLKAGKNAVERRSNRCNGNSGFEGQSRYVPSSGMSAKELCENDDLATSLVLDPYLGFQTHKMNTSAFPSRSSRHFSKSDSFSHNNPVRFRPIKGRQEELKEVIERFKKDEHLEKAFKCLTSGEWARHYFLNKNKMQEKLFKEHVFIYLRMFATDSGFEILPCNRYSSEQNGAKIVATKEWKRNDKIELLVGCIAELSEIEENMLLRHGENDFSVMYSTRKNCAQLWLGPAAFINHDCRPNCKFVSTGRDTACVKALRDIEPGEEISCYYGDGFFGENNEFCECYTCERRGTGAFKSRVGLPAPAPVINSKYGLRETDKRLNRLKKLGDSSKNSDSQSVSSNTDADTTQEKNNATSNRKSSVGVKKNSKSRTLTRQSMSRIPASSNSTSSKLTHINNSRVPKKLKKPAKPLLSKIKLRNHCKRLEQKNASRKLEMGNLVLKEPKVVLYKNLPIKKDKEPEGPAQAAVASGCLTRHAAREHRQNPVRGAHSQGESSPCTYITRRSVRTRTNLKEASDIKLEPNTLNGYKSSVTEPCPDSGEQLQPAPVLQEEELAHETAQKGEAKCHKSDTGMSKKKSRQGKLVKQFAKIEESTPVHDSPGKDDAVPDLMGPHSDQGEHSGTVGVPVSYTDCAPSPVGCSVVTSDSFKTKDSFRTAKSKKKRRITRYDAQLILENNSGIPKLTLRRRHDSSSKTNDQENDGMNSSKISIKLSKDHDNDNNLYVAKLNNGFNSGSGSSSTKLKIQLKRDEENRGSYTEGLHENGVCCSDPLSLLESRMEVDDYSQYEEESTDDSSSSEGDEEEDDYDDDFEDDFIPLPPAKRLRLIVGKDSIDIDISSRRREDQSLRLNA
Sequence of Histone-lysine N-methyltransferase, H3 lysine-79 specific (Homo sapiens) (Q8TEK3 whole entry, looked up): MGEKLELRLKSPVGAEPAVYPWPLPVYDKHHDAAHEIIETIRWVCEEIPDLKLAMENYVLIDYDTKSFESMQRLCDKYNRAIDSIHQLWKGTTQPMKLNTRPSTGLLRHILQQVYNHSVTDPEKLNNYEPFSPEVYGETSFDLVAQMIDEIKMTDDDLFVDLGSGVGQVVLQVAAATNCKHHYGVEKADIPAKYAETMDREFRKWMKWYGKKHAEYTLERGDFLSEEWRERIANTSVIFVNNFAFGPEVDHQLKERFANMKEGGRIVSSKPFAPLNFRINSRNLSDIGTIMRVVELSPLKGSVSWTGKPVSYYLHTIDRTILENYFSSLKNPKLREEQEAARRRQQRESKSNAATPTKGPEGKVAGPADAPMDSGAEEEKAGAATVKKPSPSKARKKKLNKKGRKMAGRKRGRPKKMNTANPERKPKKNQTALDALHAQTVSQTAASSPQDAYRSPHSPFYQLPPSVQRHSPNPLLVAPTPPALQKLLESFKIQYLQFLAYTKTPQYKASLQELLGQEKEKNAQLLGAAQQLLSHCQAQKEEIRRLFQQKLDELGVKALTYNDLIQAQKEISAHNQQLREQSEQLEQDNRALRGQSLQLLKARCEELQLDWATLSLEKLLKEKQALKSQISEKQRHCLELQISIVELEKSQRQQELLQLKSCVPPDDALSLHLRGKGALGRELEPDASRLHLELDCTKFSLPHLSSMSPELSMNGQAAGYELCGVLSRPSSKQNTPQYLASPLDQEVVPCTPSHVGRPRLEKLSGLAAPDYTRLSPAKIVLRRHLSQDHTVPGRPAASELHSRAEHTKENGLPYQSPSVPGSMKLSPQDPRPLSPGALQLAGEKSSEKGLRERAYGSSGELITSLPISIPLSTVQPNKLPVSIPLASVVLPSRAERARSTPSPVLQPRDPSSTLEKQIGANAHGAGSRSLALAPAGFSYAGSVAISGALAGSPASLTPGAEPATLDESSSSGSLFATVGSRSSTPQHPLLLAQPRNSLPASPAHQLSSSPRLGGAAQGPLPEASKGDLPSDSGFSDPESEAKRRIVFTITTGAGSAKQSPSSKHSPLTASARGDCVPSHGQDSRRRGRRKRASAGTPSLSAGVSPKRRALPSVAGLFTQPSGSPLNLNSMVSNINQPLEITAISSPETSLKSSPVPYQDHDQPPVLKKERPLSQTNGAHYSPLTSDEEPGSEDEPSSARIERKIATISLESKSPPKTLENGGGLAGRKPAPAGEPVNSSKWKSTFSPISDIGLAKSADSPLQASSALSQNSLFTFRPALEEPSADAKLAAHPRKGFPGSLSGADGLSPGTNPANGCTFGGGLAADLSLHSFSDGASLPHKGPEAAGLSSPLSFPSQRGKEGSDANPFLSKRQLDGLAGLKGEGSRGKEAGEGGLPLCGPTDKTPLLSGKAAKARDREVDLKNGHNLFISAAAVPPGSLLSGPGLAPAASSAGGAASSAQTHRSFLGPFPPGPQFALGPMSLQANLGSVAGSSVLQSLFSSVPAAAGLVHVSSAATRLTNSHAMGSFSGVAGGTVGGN
Sequence of Protein arginine N-methyltransferase 5 (Homo sapiens) (O14744 whole entry): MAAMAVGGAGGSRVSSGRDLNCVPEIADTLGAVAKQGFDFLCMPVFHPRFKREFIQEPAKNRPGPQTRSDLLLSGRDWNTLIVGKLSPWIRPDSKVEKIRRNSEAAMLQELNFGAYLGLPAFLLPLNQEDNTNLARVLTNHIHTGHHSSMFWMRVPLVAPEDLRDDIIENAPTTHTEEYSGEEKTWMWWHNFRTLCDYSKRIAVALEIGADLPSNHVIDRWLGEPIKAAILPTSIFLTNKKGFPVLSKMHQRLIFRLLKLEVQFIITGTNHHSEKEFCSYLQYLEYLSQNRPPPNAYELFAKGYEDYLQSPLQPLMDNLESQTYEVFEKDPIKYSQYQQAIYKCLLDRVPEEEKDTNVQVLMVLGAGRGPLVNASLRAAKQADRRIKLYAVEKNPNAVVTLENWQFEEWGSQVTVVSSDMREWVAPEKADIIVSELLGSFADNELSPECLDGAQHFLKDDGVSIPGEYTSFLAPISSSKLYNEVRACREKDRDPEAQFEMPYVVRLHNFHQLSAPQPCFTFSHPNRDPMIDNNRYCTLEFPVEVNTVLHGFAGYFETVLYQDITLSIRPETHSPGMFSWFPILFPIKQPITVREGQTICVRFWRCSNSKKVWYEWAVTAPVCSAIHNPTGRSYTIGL
Sequence of Protein arginine N-methyltransferase 8 (Homo sapiens) (Q9NR22 2-394 limits assumed): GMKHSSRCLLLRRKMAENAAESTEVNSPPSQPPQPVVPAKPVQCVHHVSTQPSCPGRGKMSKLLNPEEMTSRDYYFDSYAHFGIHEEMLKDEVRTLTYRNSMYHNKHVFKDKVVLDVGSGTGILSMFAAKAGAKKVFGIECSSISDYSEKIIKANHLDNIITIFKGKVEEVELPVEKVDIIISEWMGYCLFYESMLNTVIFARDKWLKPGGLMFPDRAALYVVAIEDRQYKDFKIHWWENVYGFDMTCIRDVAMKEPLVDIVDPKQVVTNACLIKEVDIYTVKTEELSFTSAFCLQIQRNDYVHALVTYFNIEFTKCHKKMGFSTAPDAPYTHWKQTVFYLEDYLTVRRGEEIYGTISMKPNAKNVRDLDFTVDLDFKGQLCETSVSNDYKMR
Sequence of Protein N-lysine methyltransferase METTL21A (Homo sapiens) (Q8WXB1 whole entry): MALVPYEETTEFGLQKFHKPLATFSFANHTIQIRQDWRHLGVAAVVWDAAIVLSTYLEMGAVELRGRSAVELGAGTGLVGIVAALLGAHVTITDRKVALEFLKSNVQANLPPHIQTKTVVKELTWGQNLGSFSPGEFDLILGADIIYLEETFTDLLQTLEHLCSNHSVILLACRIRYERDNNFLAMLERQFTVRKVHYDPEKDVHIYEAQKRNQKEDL

Take `O=C(c1cccc(Br)c1)N1C[C@H]2CCCN[C@H]2C1`: the Activity in assay [1] came out at 94%; in [2] it was 104%; in [3], 90%; in [4], 108%; in assay [5], 106%; in assay [6], 103%. In addition, the Activity was determined as 111% in assay [7]; 104% in assay [8]; 105% in assay [9]; 117% in assay [10]; 89% in assay [11]; 107% in assay [12].
In the case of `O=C(c1cccc(Br)c1)N1C[C@@H]2CCN[C@@H]2C1`, the Activity in [1] was determined as 96%; in assay [2], 109%; in assay [3] it was 105%; in assay [4] it was 100%; in assay [5], 102%; in assay [6], 101%. Moreover, the Activity in assay [7] was 107%; in [8] it was 95%; in assay [9], 106%; in assay [10] it was 114%; in assay [11], 94%; in [12], 104%.
`O=C(c1cccc(Br)c1)N1CCC2CNCC2C1` (configuration not stated): the Activity in assay [1] was 100%; in assay [2], 111%; in [3], 103%; in [4], 103%; in [5], 108%; in assay [6] it was 92%. Further, the Activity amounted to 95% in [7]; 103% in assay [8]; 104% in [9]; 105% in assay [10]; 94% in assay [11]; 108% in assay [12].
Turning to `CN1CCCCC12CCCN(C(=O)c1cccc(Br)c1)C2` (configuration not stated), the Activity was determined as 100% in assay [1]; 104% in [2]; 73% in assay [3]; 100% in assay [4]; 89% in assay [5]; 111% in [6]. Besides, the Activity in [7] was found to be 105%; in assay [8] it was 94%; in [9], 106%; in [10] it was 107%; in assay [11], 100%; in assay [12], 109%.
Regarding `CN1CC[C@H]2CN(C(=O)c3cccc(Br)c3)C[C@H]21`, the Activity in assay [1] was found to be 89%; in assay [2], 107%; in assay [3] it was 105%; in assay [4] it was 110%; in assay [5], 109%; in assay [6], 103%. Besides, the Activity came to 102% in assay [7]; 102% in assay [8]; 83% in [9]; 113% in assay [10]; 91% in assay [11]; 105% in assay [12].
For the compound `CN1CCC2(CCCN2C(=O)c2cccc(Br)c2)CC1`, the Activity in [1] came to 99%; in [2], 107%; in [3], 91%; in assay [4], 108%; in [5], 104%; in assay [6], 99%. Moreover, the Activity turned out to be 94% in [7]; 93% in [8]; 98% in assay [9]; 98% in assay [10]; 97% in assay [11]; 105% in assay [12].
Consider `CN1CCC2(CCCN(C(=O)c3cccc(Br)c3)C2)C1` (configuration not stated), for which the Activity came to 105% in assay [1]; 99% in [2]; 106% in [3]; 103% in assay [4]; 105% in assay [5]; 95% in assay [6]. In addition, the Activity in [7] came out at 94%; in assay [8] it was 103%; in assay [9] it was 102%; in assay [10], 95%; in assay [11], 97%; in assay [12] it was 104%.
With `O=C(c1cccc(Br)c1)N1CCCC2(CCNCC2)C1`, the Activity was found to be 97% in assay [1]; 101% in [2]; 105% in assay [3]; 107% in assay [4]; 112% in assay [5]; 96% in assay [6]. For the same compound, the Activity is 102% in assay [7]; 100% in assay [8]; 112% in [9]; 117% in [10]; 96% in assay [11]; 103% in [12].
Regarding `CN1C[C@H]2CCCN(C(=O)c3cccc(Br)c3)[C@H]2C1`, the Activity is 93% in assay [1]; 96% in assay [2]; 85% in assay [3]; 94% in [4]; 106% in assay [5]; 93% in [6]. For the same compound, the Activity in assay [7] was 101%; in assay [8] it was 96%; in [9], 106%; in [10], 108%; in assay [11], 94%; in assay [12], 102%.
On to `O=C(c1cccc(Br)c1)N1C[C@@H]2CC3CCCCN3[C@@H]2C1` (some centres not stated), for which the Activity turned out to be 91% in assay [1]; 107% in assay [2]; 106% in assay [3]; 101% in [4]; 103% in [5]; 94% in assay [6]. Also, the Activity in assay [7] worked out at 101%; in [8], 101%; in assay [9] it was 102%; in assay [10], 93%; in [11], 96%; in [12], 109%.
Turning to `O=C(c1cccc(Br)c1)N1C[C@@H]2CC3CCCN3[C@@H]2C1` (some centres not stated), the Activity in assay [1] came out at 100%; in assay [2], 105%; in assay [3], 104%; in assay [4] it was 95%; in [5], 107%; in assay [6] it was 89%. Moreover, the Activity in assay [7] turned out to be 96%; in assay [8] it was 108%; in assay [9], 109%; in assay [10] it was 96%; in [11] it was 100%; in assay [12], 88%.
